A short description of data set [1]: in vitro. Conditions: human, Caco-2.
Data set [2] can be described thus: in vitro. The conditions noted are these: mouse, liver microsomes. (In general: Liver microsomes are a subcellular fraction often used to study metabolism.)

Our source for the Papp A→B and half-life values is ChEMBL document CHEMBL5352405, “Discovery of azaspirocyclic 1H-3,4,5-Trisubstitued pyrazoles as novel G2019S-LRRK2 selective kinase inhibitors” (Eur J Med Chem, 2022).

In data set [1], `Cc1[nH]nc(-c2ccncc2)c1-c1ccc(-c2cccc(S(N)(=O)=O)c2)c(C2CC2)c1` had an apparent permeability from apical to basolateral (Papp A→B) of 8.8 ×10⁻⁶ cm/s. Moreover, in data set [2], the half-life was 30 min.

As usually defined, the Papp A→B is the apparent permeability from the apical to the basolateral side of a cell layer. Usually half-life stands for how long it takes for the measured level to halve. Low values mean rapid decline, high ones slow decline.
